Experimental data reported in PMC3445516 (PLoS ONE, 2012).

How the values were obtained:
Assay in all cases: Ambit kinase profiling, competition binding
ABL1(M351T) = target: T1, ABL1(M351T) (Homo sapiens, UniProt P00519, M351T); details: compound concentration 10 uM, read-out: Percent Competition
T1 construct: purchased Ambit Biosciences (KINOMEscan)
Excerpt: (§1) Supplement pone.0044653.s004.xls, sheet "Compound 122" | column: Percent Competition

ACVR2A = target: T2, ACVR2A (Homo sapiens, UniProt P27037); details: compound concentration 10 uM, read-out: Percent Competition
T2 construct: purchased Ambit Biosciences (KINOMEscan)
Excerpt: as §1

BRSK1 = target: T3, BRSK1 (Homo sapiens, UniProt Q8TDC3); details: compound concentration 10 uM, read-out: Percent Competition
T3 construct: purchased Ambit Biosciences (KINOMEscan)
Excerpt: as §1

CHEK1 = target: T4, CHEK1 (Homo sapiens, UniProt O14757); details: compound concentration 10 uM
T4 construct: purchased Ambit Biosciences (KINOMEscan)
Excerpt: as §1

DAPK3 = target: T5, DAPK3 (Homo sapiens, UniProt O43293); details: compound concentration 10 uM, read-out: Percent Competition
T5 construct: purchased Ambit Biosciences (KINOMEscan)
Excerpt: as §1

DLK = target: T6, DLK (Homo sapiens, UniProt Q12852); details: compound concentration 10 uM
T6 construct: purchased Ambit Biosciences (KINOMEscan)
Excerpt: as §1

EPHA5 = target: T7, EPHA5 (Homo sapiens, UniProt P54756); details: compound concentration 10 uM
T7 construct: purchased Ambit Biosciences (KINOMEscan)
Excerpt: as §1

EPHB2 = target: T8, EPHB2 (Homo sapiens, UniProt P29323); details: compound concentration 10 uM
T8 construct: purchased Ambit Biosciences (KINOMEscan)
Excerpt: as §1

ERBB2 = target: T9, ERBB2 (Homo sapiens, UniProt P04626); details: compound concentration 10 uM, read-out: Percent Competition
T9 construct: purchased Ambit Biosciences (KINOMEscan)
Excerpt: as §1

FGFR2 = target: T10, FGFR2 (Homo sapiens, UniProt P21802); details: compound concentration 10 uM, read-out: Percent Competition
T10 construct: purchased Ambit Biosciences (KINOMEscan)
Excerpt: as §1

FGFR4 = target: T11, FGFR4 (Homo sapiens, UniProt P22455); details: compound concentration 10 uM, read-out: Percent Competition
T11 construct: purchased Ambit Biosciences (KINOMEscan)
Excerpt: as §1

FLT4 = target: T12, FLT4 (Homo sapiens, UniProt P35916); details: compound concentration 10 uM, read-out: Percent Competition
T12 construct: purchased Ambit Biosciences (KINOMEscan)
Excerpt: as §1

IGF1R = target: T13, IGF1R (Homo sapiens, UniProt P08069); details: compound concentration 10 uM, read-out: Percent Competition
T13 construct: purchased Ambit Biosciences (KINOMEscan)
Excerpt: as §1

LIMK2 = target: T14, LIMK2 (Homo sapiens, UniProt P53671); details: compound concentration 10 uM, read-out: Percent Competition
T14 construct: purchased Ambit Biosciences (KINOMEscan)
Excerpt: as §1

MARK3 = target: T15, MARK3 (Homo sapiens, UniProt P27448); details: compound concentration 10 uM, read-out: Percent Competition
T15 construct: purchased Ambit Biosciences (KINOMEscan)
Excerpt: as §1

MARK4 = target: T16, MARK4 (Homo sapiens, UniProt Q96L34); details: compound concentration 10 uM
T16 construct: purchased Ambit Biosciences (KINOMEscan)
Excerpt: as §1

MERTK = target: T17, MERTK (Homo sapiens, UniProt Q12866); details: compound concentration 10 uM, read-out: Percent Competition
T17 construct: purchased Ambit Biosciences (KINOMEscan)
Excerpt: as §1

MINK = target: T18, MINK (Homo sapiens, UniProt Q8N4C8); details: compound concentration 10 uM, read-out: Percent Competition
T18 construct: purchased Ambit Biosciences (KINOMEscan)
Excerpt: as §1

MKNK2 = target: T19, MKNK2 (Homo sapiens, UniProt Q9HBH9); details: compound concentration 10 uM, read-out: Percent Competition
T19 construct: purchased Ambit Biosciences (KINOMEscan)
Excerpt: as §1

MYO3B = target: T20, MYO3B (Homo sapiens, UniProt Q8WXR4); details: compound concentration 10 uM, read-out: Percent Competition
T20 construct: purchased Ambit Biosciences (KINOMEscan)
Excerpt: as §1

PAK2 = target: T21, PAK2 (Homo sapiens, UniProt Q13177); details: compound concentration 10 uM, read-out: Percent Competition
T21 construct: purchased Ambit Biosciences (KINOMEscan)
Excerpt: as §1

PFTK1 = target: T22, PFTK1 (Homo sapiens, UniProt O94921); details: compound concentration 10 uM
T22 construct: purchased Ambit Biosciences (KINOMEscan)
Excerpt: as §1

PIK3CG = target: T23, PIK3CG (Homo sapiens, UniProt P48736); details: compound concentration 10 uM, read-out: Percent Competition
T23 construct: purchased Ambit Biosciences (KINOMEscan)
Excerpt: as §1

PIM3 = target: T24, PIM3 (Homo sapiens, UniProt Q86V86); details: compound concentration 10 uM, read-out: Percent Competition
T24 construct: purchased Ambit Biosciences (KINOMEscan)
Excerpt: as §1

PKAC-alpha = target: T25, PKAC-alpha (Homo sapiens, UniProt P17612); details: compound concentration 10 uM, read-out: Percent Competition
T25 construct: purchased Ambit Biosciences (KINOMEscan)
Excerpt: as §1

PRKG1 = target: T26, PRKG1 (Homo sapiens, UniProt Q13976); details: compound concentration 10 uM, read-out: Percent Competition
T26 construct: purchased Ambit Biosciences (KINOMEscan)
Excerpt: as §1

PYK2 = target: T27, PYK2 (Homo sapiens, UniProt Q14289); details: compound concentration 10 uM, read-out: Percent Competition
T27 construct: purchased Ambit Biosciences (KINOMEscan)
Excerpt: as §1

RET(V804L) = target: T28, RET(V804L) (Homo sapiens, UniProt P07949, V804L); details: compound concentration 10 uM, read-out: Percent Competition
T28 construct: purchased Ambit Biosciences (KINOMEscan)
Excerpt: as §1

RET(V804M) = target: T29, RET(V804M) (Homo sapiens, UniProt P07949, V804M); details: compound concentration 10 uM, read-out: Percent Competition
T29 construct: purchased Ambit Biosciences (KINOMEscan)
Excerpt: as §1

[1] = target: T30, RPS6KA5(Kin.Dom.1-N-terminal) (Homo sapiens, UniProt O75582); details: compound concentration 10 uM, read-out: Percent Competition
T30 construct: RPS6KA5(Kin.Dom.1-N-terminal); purchased Ambit Biosciences (KINOMEscan)
Excerpt: as §1

[2] = target: T31, RPS6KA5(Kin.Dom.2-C-terminal) (Homo sapiens, UniProt O75582); details: compound concentration 10 uM, read-out: Percent Competition
T31 construct: RPS6KA5(Kin.Dom.2-C-terminal); purchased Ambit Biosciences (KINOMEscan)
Excerpt: as §1

SRMS = target: T32, SRMS (Homo sapiens, UniProt Q9H3Y6); details: compound concentration 10 uM, read-out: Percent Competition
T32 construct: purchased Ambit Biosciences (KINOMEscan)
Excerpt: as §1

SRPK1 = target: T33, SRPK1 (Homo sapiens, UniProt Q96SB4); details: compound concentration 10 uM, read-out: Percent Competition
T33 construct: purchased Ambit Biosciences (KINOMEscan)
Excerpt: as §1

STK33 = target: T34, STK33 (Homo sapiens, UniProt Q9BYT3); details: compound concentration 10 uM, read-out: Percent Competition
T34 construct: purchased Ambit Biosciences (KINOMEscan)
Excerpt: as §1

TLK2 = target: T35, TLK2 (Homo sapiens, UniProt Q86UE8); details: compound concentration 10 uM, read-out: Percent Competition
T35 construct: purchased Ambit Biosciences (KINOMEscan)
Excerpt: as §1

TRKA = target: T36, TRKA (Homo sapiens, UniProt P04629); details: compound concentration 10 uM, read-out: Percent Competition
T36 construct: purchased Ambit Biosciences (KINOMEscan)
Excerpt: as §1

TRKB = target: T37, TRKB (Homo sapiens, UniProt Q16620); details: compound concentration 10 uM, read-out: Percent Competition
T37 construct: purchased Ambit Biosciences (KINOMEscan)
Excerpt: as §1

TSSK1B = target: T38, TSSK1B (Homo sapiens, UniProt Q9BXA7); details: compound concentration 10 uM, read-out: Percent Competition
T38 construct: purchased Ambit Biosciences (KINOMEscan)
Excerpt: as §1

ULK1 = target: T39, ULK1 (Homo sapiens, UniProt O75385); details: compound concentration 10 uM
T39 construct: purchased Ambit Biosciences (KINOMEscan)
Excerpt: as §1

YSK1 = target: T40, YSK1 (Homo sapiens, UniProt O00506); details: compound concentration 10 uM, read-out: Percent Competition
T40 construct: purchased Ambit Biosciences (KINOMEscan)
Excerpt: as §1

T33 sequence (Q96SB4 whole entry): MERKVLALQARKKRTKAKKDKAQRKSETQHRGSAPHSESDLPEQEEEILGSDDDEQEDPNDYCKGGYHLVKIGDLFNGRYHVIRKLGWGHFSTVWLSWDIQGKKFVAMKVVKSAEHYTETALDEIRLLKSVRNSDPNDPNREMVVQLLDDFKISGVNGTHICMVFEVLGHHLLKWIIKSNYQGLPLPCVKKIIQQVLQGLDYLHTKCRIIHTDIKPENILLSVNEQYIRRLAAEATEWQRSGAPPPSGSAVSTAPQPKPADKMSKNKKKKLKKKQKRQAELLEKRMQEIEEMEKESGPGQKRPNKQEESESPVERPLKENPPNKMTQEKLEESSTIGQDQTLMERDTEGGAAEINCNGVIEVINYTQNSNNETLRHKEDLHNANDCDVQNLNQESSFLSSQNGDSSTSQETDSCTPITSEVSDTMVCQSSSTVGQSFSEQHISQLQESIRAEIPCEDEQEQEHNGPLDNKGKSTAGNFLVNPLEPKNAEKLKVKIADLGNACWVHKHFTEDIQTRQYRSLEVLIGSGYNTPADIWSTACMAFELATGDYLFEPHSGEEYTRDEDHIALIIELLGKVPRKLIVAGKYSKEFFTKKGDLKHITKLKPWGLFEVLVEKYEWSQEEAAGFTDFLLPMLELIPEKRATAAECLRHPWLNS
T17 sequence (Q12866 21-999): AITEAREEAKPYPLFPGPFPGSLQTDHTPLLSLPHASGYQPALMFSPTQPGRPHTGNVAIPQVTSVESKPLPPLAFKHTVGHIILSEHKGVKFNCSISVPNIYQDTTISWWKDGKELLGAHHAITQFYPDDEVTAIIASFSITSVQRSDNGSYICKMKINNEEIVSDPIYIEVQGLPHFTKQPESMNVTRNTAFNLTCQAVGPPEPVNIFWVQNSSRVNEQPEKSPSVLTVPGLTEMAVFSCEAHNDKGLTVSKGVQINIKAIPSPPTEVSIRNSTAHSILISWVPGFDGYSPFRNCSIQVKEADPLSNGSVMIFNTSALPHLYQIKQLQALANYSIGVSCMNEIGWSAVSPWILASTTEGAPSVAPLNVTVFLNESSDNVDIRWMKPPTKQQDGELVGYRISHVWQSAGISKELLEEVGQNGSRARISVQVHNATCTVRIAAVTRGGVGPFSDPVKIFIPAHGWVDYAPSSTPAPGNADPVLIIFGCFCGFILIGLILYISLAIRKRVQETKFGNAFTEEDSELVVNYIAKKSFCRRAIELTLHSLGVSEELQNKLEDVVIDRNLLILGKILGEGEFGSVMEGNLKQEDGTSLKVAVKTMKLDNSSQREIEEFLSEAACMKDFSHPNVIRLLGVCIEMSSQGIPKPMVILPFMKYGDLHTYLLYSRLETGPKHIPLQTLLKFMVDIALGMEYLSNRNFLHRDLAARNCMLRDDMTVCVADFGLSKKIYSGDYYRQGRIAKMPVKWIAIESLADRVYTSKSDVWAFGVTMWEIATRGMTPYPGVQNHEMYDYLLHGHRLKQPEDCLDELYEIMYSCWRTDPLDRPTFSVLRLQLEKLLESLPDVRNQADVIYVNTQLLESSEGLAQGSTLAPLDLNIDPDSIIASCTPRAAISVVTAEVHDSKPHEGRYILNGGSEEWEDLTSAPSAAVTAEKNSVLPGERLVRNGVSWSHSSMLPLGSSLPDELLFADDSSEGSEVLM
T29 sequence (P07949 29-1114 V804M): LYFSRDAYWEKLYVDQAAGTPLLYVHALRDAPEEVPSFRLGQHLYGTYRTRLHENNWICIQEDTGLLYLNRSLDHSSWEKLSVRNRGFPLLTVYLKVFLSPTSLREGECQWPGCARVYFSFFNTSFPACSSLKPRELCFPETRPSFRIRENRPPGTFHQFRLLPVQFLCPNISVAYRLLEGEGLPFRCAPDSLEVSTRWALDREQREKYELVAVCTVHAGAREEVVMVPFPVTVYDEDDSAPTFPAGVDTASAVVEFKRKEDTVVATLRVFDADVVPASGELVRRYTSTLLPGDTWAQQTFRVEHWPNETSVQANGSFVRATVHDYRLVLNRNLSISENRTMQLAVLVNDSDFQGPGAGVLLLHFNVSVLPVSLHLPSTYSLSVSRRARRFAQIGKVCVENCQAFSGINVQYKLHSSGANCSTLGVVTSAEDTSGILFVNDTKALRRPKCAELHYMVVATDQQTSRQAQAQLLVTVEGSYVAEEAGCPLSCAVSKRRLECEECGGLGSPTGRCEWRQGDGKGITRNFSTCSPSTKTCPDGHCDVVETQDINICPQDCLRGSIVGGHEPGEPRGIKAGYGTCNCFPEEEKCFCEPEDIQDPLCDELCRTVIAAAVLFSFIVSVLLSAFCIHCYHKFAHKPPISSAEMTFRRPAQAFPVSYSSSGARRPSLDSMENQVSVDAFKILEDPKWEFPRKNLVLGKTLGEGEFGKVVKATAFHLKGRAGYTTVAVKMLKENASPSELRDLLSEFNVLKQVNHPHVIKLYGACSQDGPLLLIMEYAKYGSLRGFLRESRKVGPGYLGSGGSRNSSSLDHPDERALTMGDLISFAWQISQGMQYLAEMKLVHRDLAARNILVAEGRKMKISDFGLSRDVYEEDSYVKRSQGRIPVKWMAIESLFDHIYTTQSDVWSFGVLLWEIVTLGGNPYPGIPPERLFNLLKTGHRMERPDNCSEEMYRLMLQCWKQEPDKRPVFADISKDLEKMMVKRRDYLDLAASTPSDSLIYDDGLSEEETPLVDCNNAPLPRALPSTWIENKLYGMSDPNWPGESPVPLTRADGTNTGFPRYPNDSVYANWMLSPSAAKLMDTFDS
T14 sequence (P53671 whole entry): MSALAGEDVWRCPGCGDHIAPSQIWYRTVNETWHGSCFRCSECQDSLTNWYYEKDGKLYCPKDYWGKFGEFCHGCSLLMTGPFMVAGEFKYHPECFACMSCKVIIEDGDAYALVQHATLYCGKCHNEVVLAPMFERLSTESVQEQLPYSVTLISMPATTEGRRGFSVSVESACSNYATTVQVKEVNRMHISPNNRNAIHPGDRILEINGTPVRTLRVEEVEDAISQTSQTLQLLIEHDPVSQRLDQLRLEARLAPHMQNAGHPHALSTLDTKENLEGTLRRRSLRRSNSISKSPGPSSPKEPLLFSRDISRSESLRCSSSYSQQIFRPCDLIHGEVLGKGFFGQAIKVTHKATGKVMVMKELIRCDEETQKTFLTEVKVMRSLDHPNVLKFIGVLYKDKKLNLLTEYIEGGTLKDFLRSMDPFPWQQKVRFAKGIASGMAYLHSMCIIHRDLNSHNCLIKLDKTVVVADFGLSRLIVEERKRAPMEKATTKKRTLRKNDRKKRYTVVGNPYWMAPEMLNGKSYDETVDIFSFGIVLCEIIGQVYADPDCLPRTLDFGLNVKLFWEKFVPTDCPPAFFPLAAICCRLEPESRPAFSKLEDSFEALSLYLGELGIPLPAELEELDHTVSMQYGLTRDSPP
T21 sequence (Q13177 whole entry): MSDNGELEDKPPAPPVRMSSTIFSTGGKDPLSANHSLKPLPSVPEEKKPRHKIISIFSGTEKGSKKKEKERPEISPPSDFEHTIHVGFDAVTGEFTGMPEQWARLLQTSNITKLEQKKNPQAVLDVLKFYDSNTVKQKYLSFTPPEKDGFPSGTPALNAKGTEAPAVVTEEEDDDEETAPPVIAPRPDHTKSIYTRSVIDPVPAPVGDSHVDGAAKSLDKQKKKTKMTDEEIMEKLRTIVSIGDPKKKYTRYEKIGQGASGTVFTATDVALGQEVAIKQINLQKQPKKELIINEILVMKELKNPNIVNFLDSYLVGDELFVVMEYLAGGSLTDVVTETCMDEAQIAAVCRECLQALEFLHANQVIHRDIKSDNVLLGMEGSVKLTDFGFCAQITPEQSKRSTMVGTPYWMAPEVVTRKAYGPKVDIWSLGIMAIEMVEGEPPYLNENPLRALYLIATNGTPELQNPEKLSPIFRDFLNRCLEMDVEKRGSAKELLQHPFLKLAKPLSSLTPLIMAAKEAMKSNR
T10 sequence (P21802 22-821): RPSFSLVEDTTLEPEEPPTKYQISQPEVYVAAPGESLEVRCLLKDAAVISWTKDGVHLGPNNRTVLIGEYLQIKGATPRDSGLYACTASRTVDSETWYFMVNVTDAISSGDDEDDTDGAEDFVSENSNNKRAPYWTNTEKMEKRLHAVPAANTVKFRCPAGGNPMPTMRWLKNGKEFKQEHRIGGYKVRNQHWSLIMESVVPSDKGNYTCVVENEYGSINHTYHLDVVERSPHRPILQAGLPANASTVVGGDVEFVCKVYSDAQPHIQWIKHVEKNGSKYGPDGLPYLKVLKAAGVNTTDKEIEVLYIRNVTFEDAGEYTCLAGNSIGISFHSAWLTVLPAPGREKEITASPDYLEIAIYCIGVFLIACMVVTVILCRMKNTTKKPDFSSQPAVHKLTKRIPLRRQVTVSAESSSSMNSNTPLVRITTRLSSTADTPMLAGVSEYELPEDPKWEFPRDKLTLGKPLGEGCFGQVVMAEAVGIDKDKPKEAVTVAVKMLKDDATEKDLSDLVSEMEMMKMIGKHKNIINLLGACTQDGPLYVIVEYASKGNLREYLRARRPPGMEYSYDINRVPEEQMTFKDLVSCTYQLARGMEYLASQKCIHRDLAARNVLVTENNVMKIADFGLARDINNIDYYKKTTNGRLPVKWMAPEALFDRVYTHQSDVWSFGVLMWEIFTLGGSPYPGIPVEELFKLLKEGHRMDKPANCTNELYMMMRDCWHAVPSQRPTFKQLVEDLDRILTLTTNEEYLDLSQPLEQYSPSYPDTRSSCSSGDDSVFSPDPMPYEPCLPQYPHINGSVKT
T28 sequence (P07949 29-1114 V804L): as the sequence (P07949 29-1114 V804M) above, with M776L counted along it

Fc1ccc(-c2c(-c3ccncc3)[nH]c3nccnc23)cc1 [RO1155697-000-005]
<50%: Percent Competition (CHEK1) | Percent Competition (DLK) | Percent Competition (EPHA5) | Percent Competition (EPHB2) | Percent Competition (MARK4) | Percent Competition (PFTK1) | Percent Competition (ULK1)
< 50%: inhibition at 10 µM (ABL1(M351T)) | inhibition at 10 µM (ACVR2A) | inhibition at 10 µM (BRSK1) | inhibition at 10 µM (DAPK3) | inhibition at 10 µM (ERBB2) | inhibition at 10 µM (FGFR2) | inhibition at 10 µM (FGFR4) | inhibition at 10 µM (FLT4) | inhibition at 10 µM (IGF1R) | inhibition at 10 µM (LIMK2) | inhibition at 10 µM (MARK3) | inhibition at 10 µM (MERTK) | inhibition at 10 µM (MINK) | inhibition at 10 µM (MKNK2) | inhibition at 10 µM (MYO3B) | inhibition at 10 µM (PAK2) | inhibition at 10 µM (PIK3CG) | inhibition at 10 µM (PIM3) | inhibition at 10 µM (PKAC-alpha) | inhibition at 10 µM (PRKG1) | inhibition at 10 µM (PYK2) | inhibition at 10 µM (RET(V804L)) | inhibition at 10 µM (RET(V804M)) | inhibition at 10 µM [1] | inhibition at 10 µM [2] | inhibition at 10 µM (SRMS) | inhibition at 10 µM (SRPK1) | inhibition at 10 µM (STK33) | inhibition at 10 µM (TLK2) | inhibition at 10 µM (TRKA) | inhibition at 10 µM (TRKB) | inhibition at 10 µM (TSSK1B) | inhibition at 10 µM (YSK1)
